Experimental data: ChEMBL document CHEMBL1129833, “N-Phthalimidoalkyl derivatives of 2-carbomethoxy-3-(4-iodophenyl)tropane (-CIT): Brain monoamine transporter affinity” (Bioorg Med Chem Lett, 1997)
pKi: −log10 of the molar value.

What was measured:
Format in all cases: tissue-based
[1] = target: Norepinephrine transporter (Rattus norvegicus, UniProt Q9WTR4); test: In vitro binding affinity of compound for Norepinephrine (NE) transporter with [3H]- […] as radioligand in corpus striatum tissue from rat forebrain
[2] = target: Sodium-dependent serotonin transporter (Rattus norvegicus, UniProt P31652); test: In vitro binding affinity of compound for Serotonin transporter with [3H]- paroxetine as radioligand in corpus striatum tissue from rat forebrain
[3] = target: Sodium-dependent dopamine transporter (Rattus norvegicus, UniProt P23977); test: In vitro binding affinity of compound for Dopamine transporter with [3H]- GBR-12935 as radioligand in corpus striatum tissue from rat forebrain
Chain of Sodium-dependent dopamine transporter (P23977 whole entry): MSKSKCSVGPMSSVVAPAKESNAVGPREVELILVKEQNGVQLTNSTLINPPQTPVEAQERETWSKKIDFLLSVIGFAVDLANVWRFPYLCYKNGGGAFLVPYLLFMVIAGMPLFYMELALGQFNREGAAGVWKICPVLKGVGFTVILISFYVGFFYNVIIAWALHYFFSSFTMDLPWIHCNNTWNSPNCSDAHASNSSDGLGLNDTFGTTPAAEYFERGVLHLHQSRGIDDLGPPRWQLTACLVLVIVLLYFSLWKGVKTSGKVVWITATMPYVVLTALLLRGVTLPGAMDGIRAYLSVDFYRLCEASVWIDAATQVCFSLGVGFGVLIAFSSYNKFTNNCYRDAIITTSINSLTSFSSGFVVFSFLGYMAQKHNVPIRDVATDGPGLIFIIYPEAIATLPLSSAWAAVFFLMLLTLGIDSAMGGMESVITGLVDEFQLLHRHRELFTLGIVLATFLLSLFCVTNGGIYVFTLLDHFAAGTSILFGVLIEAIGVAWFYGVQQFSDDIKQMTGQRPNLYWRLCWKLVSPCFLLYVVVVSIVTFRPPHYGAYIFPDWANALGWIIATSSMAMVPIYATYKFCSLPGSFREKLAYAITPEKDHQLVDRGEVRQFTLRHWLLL

Chain of Norepinephrine transporter (Q9WTR4 whole entry): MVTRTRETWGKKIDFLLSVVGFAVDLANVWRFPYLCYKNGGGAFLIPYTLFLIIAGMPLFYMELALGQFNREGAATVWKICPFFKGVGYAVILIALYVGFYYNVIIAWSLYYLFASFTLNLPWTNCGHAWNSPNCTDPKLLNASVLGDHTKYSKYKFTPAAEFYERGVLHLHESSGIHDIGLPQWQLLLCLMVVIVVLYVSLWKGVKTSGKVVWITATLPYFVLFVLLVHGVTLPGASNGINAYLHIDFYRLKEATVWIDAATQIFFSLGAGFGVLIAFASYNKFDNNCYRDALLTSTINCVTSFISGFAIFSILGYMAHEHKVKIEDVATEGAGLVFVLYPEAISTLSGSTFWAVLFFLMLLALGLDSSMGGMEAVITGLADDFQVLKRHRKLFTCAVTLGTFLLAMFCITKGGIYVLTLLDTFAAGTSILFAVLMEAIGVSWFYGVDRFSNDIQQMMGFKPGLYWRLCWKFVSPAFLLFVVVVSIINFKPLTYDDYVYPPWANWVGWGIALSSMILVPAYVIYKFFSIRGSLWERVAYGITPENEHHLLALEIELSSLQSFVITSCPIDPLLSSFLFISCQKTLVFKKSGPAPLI
Chain of Sodium-dependent serotonin transporter (P31652 whole entry): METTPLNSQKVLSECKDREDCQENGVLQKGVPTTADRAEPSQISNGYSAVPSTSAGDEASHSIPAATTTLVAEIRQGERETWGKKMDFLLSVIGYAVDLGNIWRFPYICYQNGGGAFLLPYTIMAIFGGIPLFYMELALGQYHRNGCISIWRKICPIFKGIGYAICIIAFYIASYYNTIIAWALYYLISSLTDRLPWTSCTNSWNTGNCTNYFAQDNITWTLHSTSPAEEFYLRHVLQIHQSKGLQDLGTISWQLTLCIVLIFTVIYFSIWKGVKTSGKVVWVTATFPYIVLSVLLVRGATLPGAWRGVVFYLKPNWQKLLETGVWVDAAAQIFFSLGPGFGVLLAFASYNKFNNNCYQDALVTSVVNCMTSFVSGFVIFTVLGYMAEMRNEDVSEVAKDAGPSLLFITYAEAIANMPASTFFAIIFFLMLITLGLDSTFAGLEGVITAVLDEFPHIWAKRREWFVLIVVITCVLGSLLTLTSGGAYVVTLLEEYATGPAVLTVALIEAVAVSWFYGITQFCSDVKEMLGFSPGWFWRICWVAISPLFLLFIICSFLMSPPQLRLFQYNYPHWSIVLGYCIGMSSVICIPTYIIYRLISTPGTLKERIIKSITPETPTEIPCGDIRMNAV

| Structure (SMILES) | pKi [1] | pKi [2] | pKi [3] |
| --- | --- | --- | --- |
| COC(=O)C1C2CC[C@H](C[C@@H]1c1ccc(I)cc1)N2CCN1C(=O)c2ccccc2C1=O (stereo partly drawn) | 6.36 | 9.08 | 8.37 |
| COC(=O)C1C2CC[C@@H](C[C@@H]1c1ccc(I)cc1)N2CCCCN1C(=O)c2ccccc2C1=O (stereo partly drawn) | 6.72 | 9.68 | 8.62 |
| COC(=O)C1C2CC[C@H](C[C@@H]1c1ccc(I)cc1)N2C (stereo partly drawn) | – | 9.36 | – |
| COC(=O)C1C2CC[C@H](C[C@@H]1c1ccc(I)cc1)N2CCCCCCCCN1C(=O)c2ccccc2C1=O (stereo partly drawn) | 7.12 | 9.70 | 8.53 |
| COC(=O)C1C2CC[C@H](C[C@@H]1c1ccc(I)cc1)N2CCCCCN1C(=O)c2ccccc2C1=O (stereo partly drawn) | 7.22 | 9.47 | 8.62 |
